# Where a name gives a salt, the structure may show the parent alone. Read-outs that look alike come from different tables or passages of the source.
# What was measured:
# [1] = test system: OC43; assay: Drug screening: OC43 nucleoprotein staining in infected A549-mRuby cells; type: cell-based, human beta coronavirus OC43; conditions: for activity at 10 µM: Betacoronavirus 1, OC43, 96 h
# Procedure, shortened: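 A549 cells expressing H2B-mRuby infected with OC43 at MOI 0.3 for 1 h at 33° C, then drugs added at 10 μM final and incubated 4 days at 33° C. Viral nucleoprotein immunostained and imaged; intensity normalized to cell number and no-drug controls (=100). Hits reduced staining >3 SD in both repeats without toxicity.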
# [2] = test system: A549-mRuby cells; assay: Drug screening: effect on cell growth (cell number day 4 / day 0); conditions: 10 μM drug; for Growth_1: number of cells at day 4 divided by number of cells at day 0 / toxic_1: repeat #1; for Growth_2: number of cells at day 4 divided by number of cells at day 0 / toxic_2: repeat #2
# Procedure, shortened: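 A549 cells carrying an H2B-mRuby reporter were infected with OC43 at MOI 0.3 for 1 h at 33° C, then given drug at 10 μM final. Cell numbers were counted by imaging at day 0 and again at day 4 after 4 days at 33° C, 5% CO2, with the screen run twice.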
# [3] = test system: OC43; assay: Dose-response analysis of OC43 infection; type: cell-based, human beta coronavirus OC43
# Procedure: Dose-response analysis of OC43 infection was done similarly to the drug screening, except cells were seeded at a concentration of 5,000 cells per well and the media contained 2% BCS instead of 10% BCS. OC43 staining was performed 2 days after infection and analyzed similarly to what was described for the drug screening. A sigmoid fit was used to extract EC50 values using Matlab.
# [4] = test system: SARS-CoV-2; assay: microbe, parasite or virus in culture; type: cell-based, SARS-CoV-2 (nCoV/Washington/1/2020); conditions: Severe acute respiratory syndrome coronavirus 2; read-out: EC50 SARS2
# [5] = 10 μM drug, MOI 0.3, 4 days, OC43 staining normalized to no-drug controls, mean of the two screen repeats, read-out: OC43_mean
# [6] = 10 μM drug, MOI 0.3, 4 days, normalized to no-drug controls in the same plate, repeat #1, read-out: OC43_1: % staining of OC43 in screen repeat #1
# [7] = 10 μM drug, MOI 0.3, 4 days, normalized to no-drug controls in the same plate, repeat #2, read-out: OC43_2: % staining of OC43 in screen repeat #2
# [8] = Betacoronavirus 1, OC43, 48 h, read-out: EC50 OC43, A549-mRuby cells, staining 2 days after infection
# [9] = A549-mRuby cells, staining 2 days after infection, read-out: EC50 OC43
# [10] = 10 μM drug, MOI 0.3, 4 days, OC43 staining normalized to no-drug controls, mean of the two screen repeats
# [11] = 10 μM drug, MOI 0.3, 4 days, normalized to no-drug controls in the same plate, repeat #1
# [12] = 10 μM drug, MOI 0.3, 4 days, normalized to no-drug controls in the same plate, repeat #2
Compound,"hit_1 ([1]; 10 μM drug, repeat #1)","hit_2 ([1]; 10 μM drug, repeat #2)","activity at 10 µM [1, 5]","activity at 10 µM [1, 6]","activity at 10 µM [1, 7]",Growth_1: number of cells at day 4 divided by number of cells at day 0 [2],toxic_1 [2],Growth_2: number of cells at day 4 divided by number of cells at day 0 [2],toxic_2 [2],"EC50 [3, 8]","EC50 ([3]; read-out: EC50 OC43, A549-mRuby cells, staining 2 days after infection)",EC50 [4],"EC50 [3, 9]","EC50 ([3]; Betacoronavirus 1, OC43, 48 h, A549-mRuby cells, staining 2 days after infection, read-out: EC50 OC43)","OC43_mean [1, 10]","OC43_1: % staining of OC43 in screen repeat #1 [1, 11]","OC43_2: % staining of OC43 in screen repeat #2 [1, 12]",activity at 10 µM ([1]; read-out: OC43_mean)
"COc1cc2c(Oc3ccc4[nH]c(C)cc4c3F)ncnc2cc1OCCCN1CCCC1 [Cediranib (AZD2171), Cediranib]",1,1,19%,17.8%,20.2%,2.6,0,2.4,0,520 nM,500 nM,3600 nM,–,–,–,–,–,–
CCC(CC)COC(=O)[C@H](C)N[P@](=O)(OC[C@H]1O[C@@](C#N)(c2ccc3c(N)ncnn23)[C@H](O)[C@@H]1O)Oc1ccccc1 [Remdesivir],–,–,–,–,–,–,–,–,–,–,–,100 nM,960 nM,900 nM,–,–,–,–
CC(CN(C)C)CN1c2ccccc2CCc2ccccc21 (stereo not shown) [Trimipramine maleate],–,–,–,–,–,–,–,–,–,3800 nM,–,1500 nM,–,–,–,–,–,–
Cc1ccc(O)c([C@H](CCN(C(C)C)C(C)C)c2ccccc2)c1.O=C(O)C(O)C(O)C(=O)O [Tolterodine tartrate],1,1,16.6%,21.7%,11.6%,5.0,0,5.1,0,7000 nM,–,–,–,–,–,–,–,–
Erythromycin Cyclocarbonate,1,1,–,–,–,5.7,0,6.0,0,–,–,–,> 10000 nM,–,18.9%,16.7%,21.1%,–
CN(C)CCCC1(c2ccc(F)cc2)OCc2cc(C#N)ccc21 (stereo not shown) [Citalopram HBr],1,1,–,20.4%,44.4%,5.1,0,5.1,0,–,–,–,–,–,–,–,–,32.4%
Alimemazine Tartrate,1,1,–,–,–,2.6,0,2.2,0,–,–,–,–,–,40.8%,47.9%,33.7%,–
C[C@@H]1CCN(C(=O)CC#N)C[C@@H]1N(C)c1ncnc2[nH]ccc12.O=C(O)CC(O)(CC(=O)O)C(=O)O [Tofacitinib (CP-690550) Citrate],1,1,–,–,–,4.8,0,4.7,0,–,–,–,–,–,58.5%,56.5%,60.4%,–
CC(C)NCC(O)COc1cccc2ccccc12 (stereo not shown) [Propranolol HCl],1,1,–,21.6%,27.7%,5.6,0,4.1,0,–,–,–,–,–,–,–,–,24.7%
CO[C@H]1/C=C/O[C@@]2(C)Oc3c(C)c(O)c4c(c3C2=O)C2=NC3(CCN(CC(C)C)CC3)NC2=C(NC(=O)/C(C)=C\C=C\[C@H](C)[C@H](O)[C@@H](C)[C@@H](O)[C@@H](C)[C@H](OC(C)=O)[C@@H]1C)C4=O [Rifabutin],1,1,41.1%,25.8%,56.4%,5.5,0,5.3,0,–,–,–,–,–,–,–,–,–
